Experimental data as given in patent US7122520B2, “Methods of modulating appetite using agouti-related transcript polypeptides” (Amgen Inc., priority 1996, dated 2006).
Ends that are not written are not given here.

Assays:
food intake of rats = test: Feeding behavior of rats treated with ART (intracerebroventricular injection); type: in vivo, Long-Evans male rats
Method: Long-Evans male rats weighing 300–500 grams were chronically implanted in the brain with a 22 gauge cannula aimed at the lateral ventricle. The steriotaxic coordinates for the canulas were approximately: 0.8 mm anterior/posterior; 1.4 mm medial/lateral; and 3.5 mm dorsal/ventral. A 3.5 mm, 28 gauge stylet remained inside the implanted cannula until the animal was ready for an injection. ART peptide or control solutions were administered with a 28 gauge injector that extended about 1 mm beyond the tip of the cannula.
ART peptide was dissolved in PBS (pH about 7.0) and injected into the lateral ventricle at doses ranging from about 0.075 nmol to about 7.5 nmol in a volume of about 2 μl. Controls were PBS and an unfolded version of ART at about 7.5 nmol. Feeding measurements were taken from pre-weighed dishes containing a mixture of ground rodent chow, sugar, and condensed milk. (45%:28%:27%). Rats were offered this mixture along with their regular chow about 24 hours prior to injection. About one and one half hours prior to infusion, the regular chow was removed, but the rats were allowed to continue feeding on the sweetened mixture. Injections were done at 8:30 am or at 8:30 pm. Food intake was assessed by weighing the dishes over time at 90 minutes, 4 hours, 8 hours, 12 hours, and 24 hours after injection. 10–12 rats were used per group.

feeding response of rats = conditions: injection into the brain of rats; cited from earlier work
MC1 receptor = biological target: T1, MC1 receptor (Mus musculus, UniProt Q01727); conditions: B16F10 mouse melanoma cell cultures; cited from earlier work
T1 construct: at the MC1 receptor in B16F10 mouse melanoma cell cultures; endogenous in cells; host or cells: B16F10 mouse melanoma cells
T1 sequence (Q01727 whole entry): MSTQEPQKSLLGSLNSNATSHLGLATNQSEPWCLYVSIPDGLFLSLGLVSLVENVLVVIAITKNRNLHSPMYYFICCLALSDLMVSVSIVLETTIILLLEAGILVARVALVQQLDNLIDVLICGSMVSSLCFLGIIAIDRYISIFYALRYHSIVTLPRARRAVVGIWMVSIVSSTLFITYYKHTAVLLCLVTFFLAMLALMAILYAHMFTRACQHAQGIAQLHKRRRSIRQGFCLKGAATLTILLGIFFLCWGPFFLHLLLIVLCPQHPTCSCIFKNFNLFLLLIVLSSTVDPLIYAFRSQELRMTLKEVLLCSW

Molecule: folded ART: synthetic peptide containing amino acids 79–132 of ART (SEQ ID NO:8), refolded in Tris-HCl/urea (REPRSSRRCVRLHESCLGQQVPCCDPCATCYCRFFNAFCYCRKLGTAMNPCSRT; cysteine pairing not given here; also: refolded)
- food intake (cumulative amount of food consumed) (food intake of rats; injection into lateral ventricle, 0.075-7.5 nmol in about 2 μl, measured 90 minutes to 24 hours after injection, vs PBS and unfolded ART controls): increased their food intake as compared to controls
- relation between amount of ART injected and amount of food eaten (food intake of rats; lateral ventricle, doses about 0.075 nmol to about 7.5 nmol): correlation between the amount of ART injected and the amount of food eaten

Molecule: melanin concentrating hormone (DFDMLRCMLGRVYRPCWQV; ends and bridges not checked; cysteine pairing not given here; UniProt P20382 147-165, looked up) [MCH]
- feeding response (feeding response of rats): stimulates a feeding response

B1: mouse agouti protein: 131 amino acid secreted protein encoded by the mouse agouti gene (protein, UniProt Q03288 23-131, looked up)
Agouti-signaling protein: HLALEETLGDDRSLRSNSSMNSLDFSSVSIVALNKKSKKISRKEAEKRKRSSKKKASMKKVARPPPPSPCVATRDSCKPPAPACCDPCASCQCRFFGSACTCRVLNPNC
- antagonism of a-MSH at the MC1 receptor (MC1 receptor): potent antagonist
